Like-named read-outs stand apart in the source and are kept apart here.
Legend:
[1] = molecular target: T1, AEA-DA lipid probe targets in Neuro2a cells (Mus musculus, UniProt Q922Q8)
T1 sequence (Q922Q8 1-307): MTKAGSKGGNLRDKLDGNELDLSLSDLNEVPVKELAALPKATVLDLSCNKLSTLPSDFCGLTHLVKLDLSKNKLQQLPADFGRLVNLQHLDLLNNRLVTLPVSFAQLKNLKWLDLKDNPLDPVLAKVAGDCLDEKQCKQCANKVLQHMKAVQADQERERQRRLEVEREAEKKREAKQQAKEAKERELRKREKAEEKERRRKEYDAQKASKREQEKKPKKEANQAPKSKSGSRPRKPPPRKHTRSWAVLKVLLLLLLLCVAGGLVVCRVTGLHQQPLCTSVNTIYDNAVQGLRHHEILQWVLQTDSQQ

[2] = molecular target: AEA-DA lipid probe targets in Neuro2a cells (Mus musculus, UniProt Q9JKW0)
[3] = molecular target: T2, AEA-DA lipid probe targets in Neuro2a cells (Mus musculus, UniProt Q9CPQ3); conditions: for SILAC ratio, TOMM22 (Q9CPQ3): Neuro2a cells, AEA-DA probe
T2 sequence (Q9CPQ3 1-142): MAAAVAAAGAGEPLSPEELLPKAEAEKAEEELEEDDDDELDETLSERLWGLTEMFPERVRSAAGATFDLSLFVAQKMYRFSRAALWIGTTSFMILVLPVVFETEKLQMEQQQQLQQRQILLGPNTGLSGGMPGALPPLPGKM

[4] = molecular target: T3, AEA-DA lipid probe targets in Neuro2a cells (Mus musculus, UniProt Q8CFE6)
T3 sequence (Q8CFE6 1-504): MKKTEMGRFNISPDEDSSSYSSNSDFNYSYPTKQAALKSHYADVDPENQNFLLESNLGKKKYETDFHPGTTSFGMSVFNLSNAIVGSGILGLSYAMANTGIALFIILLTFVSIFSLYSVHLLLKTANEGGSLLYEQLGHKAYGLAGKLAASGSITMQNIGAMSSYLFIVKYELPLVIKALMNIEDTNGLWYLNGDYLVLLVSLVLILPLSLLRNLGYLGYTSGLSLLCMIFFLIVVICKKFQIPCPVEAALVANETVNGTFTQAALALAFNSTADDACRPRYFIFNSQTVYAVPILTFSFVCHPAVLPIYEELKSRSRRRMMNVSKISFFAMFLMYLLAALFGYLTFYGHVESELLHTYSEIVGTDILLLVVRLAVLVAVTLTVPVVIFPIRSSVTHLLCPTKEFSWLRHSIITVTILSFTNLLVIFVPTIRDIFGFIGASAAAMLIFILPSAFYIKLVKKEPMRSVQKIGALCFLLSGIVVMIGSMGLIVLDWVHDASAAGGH

[5] = molecular target: T4, AEA-DA lipid probe targets in Neuro2a cells (Mus musculus, UniProt Q8R2Y8)
T4 sequence (Q8R2Y8 1-181): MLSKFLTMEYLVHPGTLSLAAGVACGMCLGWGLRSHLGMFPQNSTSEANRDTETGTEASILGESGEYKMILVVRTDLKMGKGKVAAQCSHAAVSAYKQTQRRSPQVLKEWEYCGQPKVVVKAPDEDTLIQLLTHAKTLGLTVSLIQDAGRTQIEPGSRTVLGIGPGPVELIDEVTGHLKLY

[6] = molecular target: T5, AEA-DA lipid probe targets in Neuro2a cells (Mus musculus, UniProt Q6GV12)
T5 sequence (Q6GV12 26-332): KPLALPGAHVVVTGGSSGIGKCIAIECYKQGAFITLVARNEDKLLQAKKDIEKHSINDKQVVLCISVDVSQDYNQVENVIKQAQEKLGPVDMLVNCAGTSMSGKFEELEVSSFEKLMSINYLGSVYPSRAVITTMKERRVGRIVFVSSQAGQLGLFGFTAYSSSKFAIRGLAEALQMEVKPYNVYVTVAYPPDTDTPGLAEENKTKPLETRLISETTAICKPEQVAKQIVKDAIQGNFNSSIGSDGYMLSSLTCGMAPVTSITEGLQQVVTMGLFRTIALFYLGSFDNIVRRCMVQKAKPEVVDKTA

[7] = molecular target: T6, AEA-DA lipid probe targets in Neuro2a cells (Mus musculus, UniProt O88325)
T6 sequence (O88325 22-739): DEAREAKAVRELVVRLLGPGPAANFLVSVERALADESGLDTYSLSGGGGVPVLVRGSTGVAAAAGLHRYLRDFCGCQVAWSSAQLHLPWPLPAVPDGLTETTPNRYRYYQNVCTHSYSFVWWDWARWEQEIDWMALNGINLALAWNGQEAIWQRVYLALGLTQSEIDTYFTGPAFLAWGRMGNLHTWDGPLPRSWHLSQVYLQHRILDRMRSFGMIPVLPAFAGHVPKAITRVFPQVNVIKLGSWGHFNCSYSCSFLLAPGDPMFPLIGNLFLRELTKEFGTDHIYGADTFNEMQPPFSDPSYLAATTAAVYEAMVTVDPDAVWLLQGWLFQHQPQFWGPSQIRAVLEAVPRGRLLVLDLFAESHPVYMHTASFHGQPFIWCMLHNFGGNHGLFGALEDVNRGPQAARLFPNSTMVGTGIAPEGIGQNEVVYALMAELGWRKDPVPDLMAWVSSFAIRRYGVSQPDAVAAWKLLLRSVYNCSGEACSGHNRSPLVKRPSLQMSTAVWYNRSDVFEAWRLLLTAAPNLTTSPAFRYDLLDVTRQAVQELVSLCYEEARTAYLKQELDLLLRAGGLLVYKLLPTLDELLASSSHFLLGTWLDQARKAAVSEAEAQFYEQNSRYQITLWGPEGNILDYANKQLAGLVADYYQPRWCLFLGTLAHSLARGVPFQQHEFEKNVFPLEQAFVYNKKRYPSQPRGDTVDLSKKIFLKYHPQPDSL

[8] = molecular target: AEA-DA lipid probe targets in Neuro2a cells (Mus musculus, UniProt Q62261)
AEA-DA lipid probe targets in Neuro2a cells (Mus musculus, UniProt Q62261), sequence (Q62261 whole entry): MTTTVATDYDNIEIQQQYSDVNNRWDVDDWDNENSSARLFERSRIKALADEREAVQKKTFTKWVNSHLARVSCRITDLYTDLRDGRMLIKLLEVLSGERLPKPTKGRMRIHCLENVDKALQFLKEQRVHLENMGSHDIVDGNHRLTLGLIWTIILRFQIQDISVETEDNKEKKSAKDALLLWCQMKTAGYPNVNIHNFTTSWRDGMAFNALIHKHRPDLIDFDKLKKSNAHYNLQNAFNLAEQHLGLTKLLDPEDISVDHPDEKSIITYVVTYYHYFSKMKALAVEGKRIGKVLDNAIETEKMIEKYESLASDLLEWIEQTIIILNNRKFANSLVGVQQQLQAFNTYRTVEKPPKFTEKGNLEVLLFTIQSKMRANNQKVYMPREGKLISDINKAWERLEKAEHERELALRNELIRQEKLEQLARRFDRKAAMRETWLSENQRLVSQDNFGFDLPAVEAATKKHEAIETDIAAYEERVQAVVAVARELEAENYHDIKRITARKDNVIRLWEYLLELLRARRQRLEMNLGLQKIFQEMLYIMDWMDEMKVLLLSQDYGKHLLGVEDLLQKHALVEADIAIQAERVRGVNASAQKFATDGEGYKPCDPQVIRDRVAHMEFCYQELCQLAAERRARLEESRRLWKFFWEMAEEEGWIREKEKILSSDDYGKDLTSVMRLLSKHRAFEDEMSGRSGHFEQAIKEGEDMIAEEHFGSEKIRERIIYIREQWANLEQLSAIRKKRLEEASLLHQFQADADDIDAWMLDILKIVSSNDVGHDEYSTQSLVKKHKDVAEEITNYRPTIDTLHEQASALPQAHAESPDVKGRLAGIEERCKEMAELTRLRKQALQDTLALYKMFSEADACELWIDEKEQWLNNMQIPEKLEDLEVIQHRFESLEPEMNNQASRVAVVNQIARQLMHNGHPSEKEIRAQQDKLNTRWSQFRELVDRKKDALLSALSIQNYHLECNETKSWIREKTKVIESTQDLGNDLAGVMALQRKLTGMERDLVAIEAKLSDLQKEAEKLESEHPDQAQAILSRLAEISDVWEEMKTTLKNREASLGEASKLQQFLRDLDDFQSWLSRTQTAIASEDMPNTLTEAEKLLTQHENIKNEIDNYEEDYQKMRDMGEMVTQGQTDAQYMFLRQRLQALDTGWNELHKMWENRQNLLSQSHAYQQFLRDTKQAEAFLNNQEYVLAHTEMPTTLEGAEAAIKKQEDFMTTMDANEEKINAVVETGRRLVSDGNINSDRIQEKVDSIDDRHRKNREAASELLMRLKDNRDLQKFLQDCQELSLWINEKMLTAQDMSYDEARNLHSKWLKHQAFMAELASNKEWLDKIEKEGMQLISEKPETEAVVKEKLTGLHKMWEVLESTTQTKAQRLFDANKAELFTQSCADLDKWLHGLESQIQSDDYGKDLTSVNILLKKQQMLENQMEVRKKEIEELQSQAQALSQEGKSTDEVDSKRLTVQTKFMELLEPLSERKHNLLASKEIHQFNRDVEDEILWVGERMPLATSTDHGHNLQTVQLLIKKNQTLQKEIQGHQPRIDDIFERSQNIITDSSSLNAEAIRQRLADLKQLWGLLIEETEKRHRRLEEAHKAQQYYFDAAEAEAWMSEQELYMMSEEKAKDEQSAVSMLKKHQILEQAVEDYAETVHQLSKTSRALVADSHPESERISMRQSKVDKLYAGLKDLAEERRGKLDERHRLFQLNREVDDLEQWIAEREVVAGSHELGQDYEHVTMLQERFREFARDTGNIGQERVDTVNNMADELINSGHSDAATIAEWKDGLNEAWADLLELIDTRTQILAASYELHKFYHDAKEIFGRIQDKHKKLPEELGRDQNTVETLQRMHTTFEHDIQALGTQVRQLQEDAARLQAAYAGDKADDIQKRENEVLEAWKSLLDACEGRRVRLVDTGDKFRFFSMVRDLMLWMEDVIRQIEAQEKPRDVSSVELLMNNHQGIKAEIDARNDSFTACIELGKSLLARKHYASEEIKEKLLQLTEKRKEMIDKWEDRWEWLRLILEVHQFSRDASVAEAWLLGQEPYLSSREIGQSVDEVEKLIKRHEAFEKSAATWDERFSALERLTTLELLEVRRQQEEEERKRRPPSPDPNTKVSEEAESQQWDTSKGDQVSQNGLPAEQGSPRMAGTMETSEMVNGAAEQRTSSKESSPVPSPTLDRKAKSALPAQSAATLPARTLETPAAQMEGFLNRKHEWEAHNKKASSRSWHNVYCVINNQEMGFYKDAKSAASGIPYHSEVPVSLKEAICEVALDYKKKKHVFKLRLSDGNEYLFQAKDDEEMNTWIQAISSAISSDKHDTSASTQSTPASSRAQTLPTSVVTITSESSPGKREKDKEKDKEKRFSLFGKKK

AEA-DA lipid probe targets in Neuro2a cells (Mus musculus, UniProt Q9JKW0), sequence (Q9JKW0 whole entry): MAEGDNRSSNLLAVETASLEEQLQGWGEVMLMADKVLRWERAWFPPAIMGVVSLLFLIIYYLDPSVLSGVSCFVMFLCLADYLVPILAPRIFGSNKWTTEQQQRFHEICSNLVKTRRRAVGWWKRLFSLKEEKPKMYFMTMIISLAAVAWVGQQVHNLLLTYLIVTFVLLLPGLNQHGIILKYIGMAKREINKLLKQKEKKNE

In the case of `O=C(/C=C/c1cccnc1)NCCCCC1CCN(C(=O)c2ccccc2)CC1` [FK-866, reference compound], the “SILAC ratio Lrrc59” value ([1]; competitor 25 μM) is reported as 1.2, the “SILAC ratio Arl6ip1” value ([2]; competitor 25 μM) is reported as 1.0 and the “SILAC ratio, TOMM22 (Q9CPQ3)” value ([3]; competitor 25 μM) is reported as 1.1. For the same compound, the “SILAC ratio, Tomm22” value ([3]; competitor 25 μM) was 1.1, the “SILAC ratio Slc38a2” value ([4]; competitor 25 μM) was 1.0 and the “SILAC ratio Ptrh2” value ([5]; competitor 25 μM) was 1.0. For the same compound, the “SILAC ratio, Kdsr” value ([6]; competitor 25 μM) was 1.1, the “SILAC ratio Naglu” value ([7]; competitor 25 μM) was 1.3 and the “SILAC ratio Sptbn1” value ([8]; competitor 25 μM) was 1.3.
For `CCCCC/C=C\C/C=C\C/C=C\C/C=C\CCCC(=O)NCCO` [AEA, anandamide, reference compound], the “SILAC ratio Lrrc59” value ([1]; competitor 200 μM) was 1.6, the “SILAC ratio Arl6ip1” value ([2]; competitor 200 μM) was 1.5 and the “SILAC ratio, TOMM22 (Q9CPQ3)” value ([3]; competitor 200 μM) was 1.4. The “SILAC ratio, Tomm22” value ([3]; competitor 200 μM) was 1.4, the “SILAC ratio Slc38a2” value ([4]; competitor 200 μM) was 1.5 and the “SILAC ratio Ptrh2” value ([5]; competitor 200 μM) was 1.5. The “SILAC ratio, Kdsr” value ([6]; competitor 200 μM) was 3.6, the “SILAC ratio Naglu” value ([7]; competitor 200 μM) was 1.3 and the “SILAC ratio Sptbn1” value ([8]; competitor 200 μM) was 1.1.
`CN1CCN(C(=O)c2c(-c3ccccc3)c3cc([N+](=O)[O-])ccc3n2C)CC1` [KML110, (1-Methyl-5-nitro-3-phenyl-1H-indol-2-yl)(4-methylpiperazin-1-yl)methanone] was tested, and the “SILAC ratio Lrrc59” value ([1]; competitor 25 μM) was 1.3, the “SILAC ratio Arl6ip1” value ([2]; competitor 25 μM) was 1.4 and the “SILAC ratio, Tomm22” value ([3]; competitor 25 μM) was 1.3. For the same compound, the “SILAC ratio Slc38a2” value ([4]; competitor 25 μM) was 1.2, the “SILAC ratio Ptrh2” value ([5]; competitor 25 μM) was 1.0 and the “SILAC ratio, Kdsr” value ([6]; competitor 25 μM) was 1.6. The “SILAC ratio Naglu” value ([7]; competitor 25 μM) was 1.4 and the “SILAC ratio Sptbn1” value ([8]; competitor 25 μM) was 1.2.
For `C=CCN(C)CCCCCCOc1ccc(C(=O)c2ccc(Br)cc2)c(F)c1` [Ro 48-8071, reference compound], the “SILAC ratio Lrrc59” value ([1]; competitor 25 μM) was 1.2, the “SILAC ratio Arl6ip1” value ([2]; competitor 25 μM) was 1.1 and the “SILAC ratio, TOMM22 (Q9CPQ3)” value ([3]; competitor 25 μM) was 1.0. For the same compound, the “SILAC ratio, Tomm22” value ([3]; competitor 25 μM) was 1.0, the “SILAC ratio Slc38a2” value ([4]; competitor 25 μM) was 0.7 and the “SILAC ratio Ptrh2” value ([5]; competitor 25 μM) was 0.9. The “SILAC ratio, Kdsr” value ([6]; competitor 25 μM) was 1.6, the “SILAC ratio Naglu” value ([7]; competitor 25 μM) was 0.3 and the “SILAC ratio Sptbn1” value ([8]; competitor 25 μM) was 1.0.
For `CN1CCN(C(=O)c2[nH]c3ccc([N+](=O)[O-])cc3c2-c2ccccc2)CC1` [MJN228, (4-Methylpiperazin-1-yl)(5-nitro-3-phenyl-1H-indol-2-yl)methanone], the “SILAC ratio Lrrc59” value ([1]; competitor 10 μM) was 1.3, the “SILAC ratio Lrrc59” value ([1]; competitor 25 μM) was 1.5 and the “SILAC ratio Lrrc59” value ([1]; competitor 50 μM) was 1.5. The “SILAC ratio Lrrc59” value ([1]; competitor 100 μM) was 2.0, the “SILAC ratio Arl6ip1” value ([2]; competitor 10 μM) was 0.8 and the “SILAC ratio Arl6ip1” value ([2]; competitor 25 μM) was 1.6. The “SILAC ratio Arl6ip1” value ([2]; competitor 100 μM) was 1.5, the “SILAC ratio, TOMM22 (Q9CPQ3)” value ([3]; competitor 25 μM) was 1.2 and the “SILAC ratio, Tomm22” value ([3]; competitor 10 μM) was 1.1. The “SILAC ratio, Tomm22” value ([3]; competitor 25 μM) was 1.2, the “SILAC ratio, Tomm22” value ([3]; competitor 50 μM) was 1.2 and the “SILAC ratio, Tomm22” value ([3]; competitor 100 μM) was 1.8. For the same compound, the “SILAC ratio Slc38a2” value ([4]; competitor 10 μM) was 1.2, the “SILAC ratio Slc38a2” value ([4]; competitor 25 μM) was 1.3 and the “SILAC ratio Slc38a2” value ([4]; competitor 100 μM) was 1.2. For the same compound, the “SILAC ratio Ptrh2” value ([5]; competitor 10 μM) was 1.1, the “SILAC ratio Ptrh2” value ([5]; competitor 25 μM) was 1.0 and the “SILAC ratio Ptrh2” value ([5]; competitor 50 μM) was 1.2. The “SILAC ratio Ptrh2” value ([5]; competitor 100 μM) was 1.1, the “SILAC ratio, Kdsr” value ([6]; competitor 10 μM) was 1.1 and the “SILAC ratio, Kdsr” value ([6]; competitor 25 μM) was 1.5. The “SILAC ratio, Kdsr” value ([6]; competitor 50 μM) was 1.3, the “SILAC ratio, Kdsr” value ([6]; competitor 100 μM) was 1.7 and the “SILAC ratio Naglu” value ([7]; competitor 10 μM) was 1.4. The “SILAC ratio Naglu” value ([7]; competitor 25 μM) was 1.3, the “SILAC ratio Naglu” value ([7]; competitor 50 μM) was 1.9 and the “SILAC ratio Naglu” value ([7]; competitor 100 μM) was 1.7. The “SILAC ratio Sptbn1” value ([8]; competitor 10 μM) was 1.0, the “SILAC ratio Sptbn1” value ([8]; competitor 25 μM) was 1.2 and the “SILAC ratio Sptbn1” value ([8]; competitor 100 μM) was 1.3.

Reference: US10168342B2, “Lipid probes and uses thereof” (THE SCRIPPS RESEARCH INSTITUTE, priority 2015, dated 2019)
